# Activity calls are given as the source filed them. The calls are words filed in the database; no cut-off is given here.
# How the values were obtained:
# Format in all cases: functional
# SF-295 = assay: Cytotoxicity against human SF295 cells assessed as cell growth at 10 uM after 48 hrs by sulforhodamine B assay; conditions: for growth at 10 µM: SF-295, 48 h, read-out: Activity
# SR = assay: Cytotoxicity against human SR cells assessed as cell growth at 10 uM after 48 hrs by sulforhodamine B assay
# OVCAR-5 = assay: Cytotoxicity against human OVCAR5 cells assessed as cell growth at 10 uM after 48 hrs by sulforhodamine B assay
# HT-29 = assay: Cytotoxicity against human HT-29 cells assessed as cell growth at 10 uM after 48 hrs by sulforhodamine B assay
# OVCAR-4 = assay: Cytotoxicity against human OVCAR4 cells assessed as cell growth at 10 uM after 48 hrs by sulforhodamine B assay
# LOX IMVI = assay: Cytotoxicity against human LOXIMVI cells assessed as cell growth at 10 uM after 48 hrs by sulforhodamine B assay
# HOP-62 = assay: Cytotoxicity against human HOP62 cells assessed as cell growth at 10 uM after 48 hrs by sulforhodamine B assay
# SNB-75 = assay: Cytotoxicity against human SNB75 cells assessed as cell growth at 10 uM after 48 hrs by sulforhodamine B assay
# NCI-H322M = assay: Cytotoxicity against human NCI-H322M cells assessed as cell growth at 10 uM after 48 hrs by sulforhodamine B assay
# PC-3 = assay: Cytotoxicity against human PC3 cells assessed as cell growth at 10 uM after 48 hrs by sulforhodamine B assay
# A549 = assay: Cytotoxicity against human A549 cells assessed as cell growth at 10 uM after 48 hrs by sulforhodamine B assay
# SK-MEL-2 = assay: Cytotoxicity against human SK-MEL-2 cells assessed as cell growth at 10 uM after 48 hrs by sulforhodamine B assay
# SN12C = assay: Cytotoxicity against human SN12C cells assessed as cell growth at 10 uM after 48 hrs by sulforhodamine B assay
# TK-10 = assay: Cytotoxicity against human TK10 cells assessed as cell growth at 10 uM after 48 hrs by sulforhodamine B assay
# HCT-15 = assay: Cytotoxicity against human HCT15 cells assessed as cell growth at 10 uM after 48 hrs by sulforhodamine B assay
# OVCAR-8 = assay: Cytotoxicity against human OVCAR8 cells assessed as cell growth at 10 uM after 48 hrs by sulforhodamine B assay
# ACHN = assay: Cytotoxicity against human ACHN cells assessed as cell growth at 10 uM after 48 hrs by sulforhodamine B assay
# A498 = assay: Cytotoxicity against human A498 cells assessed as cell growth at 10 uM after 48 hrs by sulforhodamine B assay
# HOP-92 = assay: Cytotoxicity against human HOP92 cells assessed as cell growth at 10 uM after 48 hrs by sulforhodamine B assay
# IGROV-1 = assay: Cytotoxicity against human IGROV1 cells assessed as cell growth at 10 uM after 48 hrs by sulforhodamine B assay
# COLO 205 = assay: Cytotoxicity against human COLO205 cells assessed as cell growth at 10 uM after 48 hrs by sulforhodamine B assay
# BT-549 = assay: Cytotoxicity against human BT549 cells assessed as cell growth at 10 uM after 48 hrs by sulforhodamine B assay
# U-251 = assay: Cytotoxicity against human U251 cells assessed as cell growth at 10 uM after 48 hrs by sulforhodamine B assay
# MOLT-4 = assay: Cytotoxicity against human MOLT4 cells assessed as cell growth at 10 uM after 48 hrs by sulforhodamine B assay; conditions: for growth at 10 µM: MOLT-4, 48 h, read-out: Activity
# SNB-19 = assay: Cytotoxicity against human SNB19 cells assessed as cell growth at 10 uM after 48 hrs by sulforhodamine B assay
# SF-268 = assay: Cytotoxicity against human SF268 cells assessed as cell growth at 10 uM after 48 hrs by sulforhodamine B assay
# CCRF-CEM = assay: Cytotoxicity against human CCRF-CEM cells assessed as cell growth at 10 uM after 48 hrs by sulforhodamine B assay
# HCT-116 = assay: Cytotoxicity against human HCT116 cells assessed as cell growth at 10 uM after 48 hrs by sulforhodamine B assay
# M14 = assay: Cytotoxicity against human M14 cells assessed as cell growth at 10 uM after 48 hrs by sulforhodamine B assay
# SF-539 = assay: Cytotoxicity against human SF539 cells assessed as cell growth at 10 uM after 48 hrs by sulforhodamine B assay
# SK-OV-3 = assay: Cytotoxicity against human SKOV3 cells assessed as cell growth at 10 uM after 48 hrs by sulforhodamine B assay
# Hs-578T = assay: Cytotoxicity against human Hs 578T cells assessed as cell growth at 10 uM after 48 hrs by sulforhodamine B assay
# 786-0 = assay: Cytotoxicity against human 786-0 cells assessed as cell growth at 10 uM after 48 hrs by sulforhodamine B assay
# MDA-MB-231 = assay: Cytotoxicity against human MDA-MB-231 cells assessed as cell growth at 10 uM after 48 hrs by sulforhodamine B assay
# MDA-MB-468 = assay: Cytotoxicity against human MDA-MB-468 cells assessed as cell growth at 10 uM after 48 hrs by sulforhodamine B assay
# MDA-MB-435 = assay: Cytotoxicity against human MDA-MB-435 cells assessed as cell growth at 10 uM after 48 hrs by sulforhodamine B assay
# NCI-H23 = assay: Cytotoxicity against human NCI-H23 cells assessed as cell growth at 10 uM after 48 hrs by sulforhodamine B assay
# Malme-3M = assay: Cytotoxicity against human MALME-3M cells assessed as cell growth at 10 uM after 48 hrs by sulforhodamine B assay
# SK-MEL-28 = assay: Cytotoxicity against human SK-MEL-28 cells assessed as cell growth at 10 uM after 48 hrs by sulforhodamine B assay
# HCC 2998 = assay: Cytotoxicity against human HCC2998 cells assessed as cell growth at 10 uM after 48 hrs by sulforhodamine B assay
# UACC-257 = assay: Cytotoxicity against human UACC257 cells assessed as cell growth at 10 uM after 48 hrs by sulforhodamine B assay
# UO-31 = assay: Cytotoxicity against human UO31 cells assessed as cell growth at 10 uM after 48 hrs by sulforhodamine B assay
# RXF 393 = assay: Cytotoxicity against human RXF393 cells assessed as cell growth at 10 uM after 48 hrs by sulforhodamine B assay
# SK-MEL-5 = assay: Cytotoxicity against human SK-MEL-5 cells assessed as cell growth at 10 uM after 48 hrs by sulforhodamine B assay
# T47D = assay: Cytotoxicity against human T47D cells assessed as cell growth at 10 uM after 48 hrs by sulforhodamine B assay
# DU-145 = assay: Cytotoxicity against human DU145 cells assessed as cell growth at 10 uM after 48 hrs by sulforhodamine B assay
# K562 = assay: Cytotoxicity against human K562 cells assessed as cell growth at 10 uM after 48 hrs by sulforhodamine B assay; conditions: for growth at 10 µM: K562, 48 h, read-out: Activity
# MCF7 = assay: Cytotoxicity against human MCF7 cells assessed as cell growth at 10 uM after 48 hrs by sulforhodamine B assay
# NCI-H460 = assay: Cytotoxicity against human NCI-H460 cells assessed as cell growth at 10 uM after 48 hrs by sulforhodamine B assay
# UACC-62 = assay: Cytotoxicity against human UACC62 cells assessed as cell growth at 10 uM after 48 hrs by sulforhodamine B assay; conditions: for growth at 10 µM: UACC-62, 48 h, read-out: Activity
# NCI-H522 = assay: Cytotoxicity against human NCI-H522 cells assessed as cell growth at 10 uM after 48 hrs by sulforhodamine B assay
# KM12 = assay: Cytotoxicity against human KM12 cells assessed as cell growth at 10 uM after 48 hrs by sulforhodamine B assay
# EKVX = assay: Cytotoxicity against human EKVX cells assessed as cell growth at 10 uM after 48 hrs by sulforhodamine B assay
# HL-60(TB) = assay: Cytotoxicity against human HL-60(TB) cells assessed as cell growth at 10 uM after 48 hrs by sulforhodamine B assay
# RPMI-8226 = assay: Cytotoxicity against human RPMI8226 cells assessed as cell growth at 10 uM after 48 hrs by sulforhodamine B assay; conditions: for growth at 10 µM: RPMI-8226, 48 h, read-out: Activity
# SW-620 = assay: Cytotoxicity against human SW620 cells assessed as cell growth at 10 uM after 48 hrs by sulforhodamine B assay
# OVCAR-3 = assay: Cytotoxicity against human OVCAR-3 cells assessed as cell growth at 10 uM after 48 hrs by sulforhodamine B assay
# NCI-H226 = assay: Cytotoxicity against human NCI-H226 cells assessed as cell growth at 10 uM after 48 hrs by sulforhodamine B assay
structure (smiles),measurement,setting,value
CCCc1cc(=O)oc2c(C)c(OCc3nnc(SC)o3)ccc12,growth at 10 µM,SF-295,21.9%
CCCc1cc(=O)oc2cc(OCC(=O)n3nc(C)cc3C)ccc12,Activity,SR,inactive
same,Activity,OVCAR-5,inactive
same,Activity,HT-29,inactive
same,Activity,OVCAR-4,inactive
same,Activity,LOX IMVI,inactive
same,Activity,HOP-62,inactive
same,Activity,SNB-75,inactive
same,Activity,NCI-H322M,inactive
same,Activity,PC-3,inactive
same,Activity,A549,inactive
same,Activity,SK-MEL-2,inactive
same,Activity,SN12C,inactive
same,Activity,TK-10,inactive
same,Activity,HCT-15,inactive
same,Activity,OVCAR-8,inactive
same,Activity,ACHN,inactive
same,Activity,A498,inactive
same,Activity,HOP-92,inactive
same,Activity,IGROV-1,inactive
same,Activity,COLO 205,inactive
same,Activity,BT-549,inactive
same,Activity,U-251,inactive
same,Activity,MOLT-4,inactive
same,Activity,SNB-19,inactive
same,Activity,SF-268,inactive
same,Activity,CCRF-CEM,inactive
same,Activity,HCT-116,inactive
same,Activity,M14,inactive
same,Activity,SF-539,inactive
same,Activity,SK-OV-3,inactive
same,Activity,Hs-578T,inactive
same,Activity,786-0,inactive
same,Activity,MDA-MB-231,inactive
same,Activity,MDA-MB-468,inactive
same,Activity,MDA-MB-435,inactive
same,Activity,NCI-H23,inactive
same,Activity,Malme-3M,inactive
same,Activity,SK-MEL-28,inactive
same,Activity,HCC 2998,inactive
same,Activity,UACC-257,inactive
same,Activity,UO-31,inactive
same,Activity,RXF 393,inactive
same,Activity,SK-MEL-5,inactive
same,Activity,T47D,inactive
same,Activity,DU-145,inactive
same,Activity,K562,inactive
same,Activity,MCF7,inactive
same,Activity,NCI-H460,inactive
same,Activity,UACC-62,inactive
same,Activity,NCI-H522,inactive
same,Activity,KM12,inactive
same,Activity,SF-295,inactive
same,Activity,EKVX,inactive
same,Activity,HL-60(TB),inactive
same,Activity,RPMI-8226,inactive
same,Activity,SW-620,inactive
same,Activity,OVCAR-3,inactive
same,Activity,NCI-H226,inactive
Cc1c(OCc2nnc(S)o2)ccc2c(-c3ccccc3)cc(=O)oc12,Activity,SR,inactive
same,Activity,OVCAR-5,inactive
same,Activity,HT-29,inactive
same,Activity,OVCAR-4,inactive
same,Activity,LOX IMVI,inactive
same,Activity,HOP-62,inactive
same,Activity,SNB-75,inactive
same,Activity,NCI-H322M,inactive
same,Activity,PC-3,inactive
same,Activity,A549,inactive
same,Activity,SK-MEL-2,inactive
same,Activity,SN12C,inactive
same,Activity,TK-10,inactive
same,Activity,HCT-15,inactive
same,Activity,OVCAR-8,inactive
same,Activity,ACHN,inactive
same,Activity,A498,inactive
same,Activity,HOP-92,inactive
same,Activity,IGROV-1,inactive
same,Activity,COLO 205,inactive
same,Activity,BT-549,inactive
same,Activity,U-251,inactive
same,Activity,MOLT-4,inactive
same,Activity,SNB-19,inactive
same,Activity,SF-268,inactive
same,Activity,CCRF-CEM,inactive
same,Activity,HCT-116,inactive
same,Activity,M14,inactive
same,Activity,SF-539,inactive
same,Activity,SK-OV-3,inactive
same,Activity,Hs-578T,inactive
same,Activity,786-0,inactive
same,Activity,MDA-MB-231,inactive
same,Activity,MDA-MB-468,inactive
same,Activity,MDA-MB-435,inactive
same,Activity,NCI-H23,inactive
same,Activity,Malme-3M,inactive
same,Activity,SK-MEL-28,inactive
same,Activity,HCC 2998,inactive
same,Activity,UACC-257,inactive
same,Activity,UO-31,inactive
same,Activity,RXF 393,inactive
same,Activity,SK-MEL-5,inactive
same,Activity,T47D,inactive
same,Activity,DU-145,inactive
same,Activity,K562,inactive
same,Activity,MCF7,inactive
same,Activity,NCI-H460,inactive
same,Activity,UACC-62,inactive
same,Activity,NCI-H522,inactive
same,Activity,KM12,inactive
same,Activity,SF-295,inactive
same,Activity,EKVX,inactive
same,Activity,HL-60(TB),inactive
same,Activity,RPMI-8226,inactive
same,Activity,SW-620,inactive
same,Activity,OVCAR-3,inactive
same,Activity,NCI-H226,inactive
Cc1c(OCc2nnc(S)n2Cc2ccccc2)ccc2c(-c3ccccc3)cc(=O)oc12,growth at 10 µM,"HT-29; HT-29, 48 h, read-out: Activity",57.1%
same,growth at 10 µM,"PC-3; PC-3, 48 h, read-out: Activity",56.6%
same,growth at 10 µM,MOLT-4,49%
same,growth at 10 µM,K562,53.6%
same,growth at 10 µM,UACC-62,59.9%
same,growth at 10 µM,"NCI-H522; NCI-H522, 48 h, read-out: Activity",56.6%
same,growth at 10 µM,SF-295,45.8%
same,growth at 10 µM,RPMI-8226,31.5%
CCCc1cc(=O)oc2cc(OCc3nnc(S)n3Cc3ccccc3)ccc12,growth at 10 µM,SR; read-out: Activity,57.6%
same,growth at 10 µM,"OVCAR-4; OVCAR-4, 48 h, read-out: Activity",48.7%
same,growth at 10 µM,"SK-MEL-2; SK-MEL-2, 48 h, read-out: Activity",53.4%
same,growth at 10 µM,MOLT-4,58.7%
same,growth at 10 µM,T47D; read-out: Activity,50.7%
same,growth at 10 µM,K562,46.9%
same,growth at 10 µM,UACC-62,59.7%
same,growth at 10 µM,SF-295,53%
same,growth at 10 µM,EKVX; read-out: Activity,57.7%
same,growth at 10 µM,"HL-60(TB); HL-60, 48 h, read-out: Activity",59.7%
same,growth at 10 µM,RPMI-8226,37.3%
Cc1c(OCc2nnc(-c3ccccc3)o2)ccc2c(-c3ccccc3)cc(=O)oc12,growth at 10 µM,RPMI-8226,47.5%
